These results are taken from PubChem BioAssay (NCI).

Among the test systems are SN12C renal; EKVX NSCLC; OVCAR-3 ovarian; SK-OV-3 ovarian; U251 CNS; RXF 393 renal; MDA-N; MALME-3M melanoma; SF-268 CNS; SF-539 CNS; SNB-19 CNS.
Holding throughout (assay): NCI tumour cell line growth inhibition, 48 h

Several values for one entry are separate records, joined by “and”; a condition that tells them apart may be missing. Equal values may be shown once.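 A five-concentration, 48-hour dose response in 96-well plates underlies each endpoint, interpolated linearly between surrounding concentrations. The concentration for 50% growth inhibition is given as GI50. At the TGI there is no net growth.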

On to `Oc1ccccc1C=Nc1ccc(-c2nc3ccccc3[nH]2)cc1`, for which the TGI in the assay with SN12C renal, in the assay on EKVX NSCLC, with OVCAR-3 ovarian, in the assay with SK-OV-3 ovarian, in the assay on U251 CNS and in the assay with RXF 393 renal was more than 100 µM in each case. For the same compound, the TGI in the assay on MDA-N, in the assay with MALME-3M melanoma, in the assay on SF-268 CNS, in the assay on SF-539 CNS and with SNB-19 CNS was more than 100 µM in each case.
In the case of `Cc1nc2c(nc1C)-c1c(c3c(n1C)C(=O)CCC3)C(=O)C2=O`, the TGI in the assay with SN12C renal turned out to be 0.52 µM; in the assay with EKVX NSCLC, 2.65 µM; in the assay on OVCAR-3 ovarian, 0.646 µM; with SK-OV-3 ovarian, 2.61 µM; in the assay on U251 CNS, 0.533 µM; in the assay on RXF 393 renal, 0.474 µM. In addition, the TGI in the assay on MDA-N turned out to be 0.322 µM; in the assay with MALME-3M melanoma it was 0.669 µM; with SF-268 CNS it was 1.22 µM; in the assay on SF-539 CNS it was 2.51 µM; with SNB-19 CNS it was 2.82 µM.
With `COC1C(O)C(C)OC(OC2C(Oc3cccc4c(O)c5c(=O)oc6ccc(C)c7c(=O)oc(c34)c5c67)OC(C)C(O)C2O)C1O` (stereo not drawn), the GI50 in the assay on SN12C renal is 1.41 µM; in the assay on EKVX NSCLC, 3.81 µM; in the assay on SK-OV-3 ovarian, 3.66 µM; with U251 CNS, 0.543 µM; in the assay on RXF 393 renal, 0.536 µM; with MALME-3M melanoma, 1.83 µM. For the same compound, the GI50 in the assay with SF-268 CNS is 1.01 µM; in the assay with SF-539 CNS, 1.19 µM; with SNB-19 CNS, 0.632 µM and 1.21 µM. Moreover, the TGI in the assay with SN12C renal was 7.74 µM and 20.9 µM; in the assay with EKVX NSCLC, 15.2 µM and 4.85 µM; in the assay with OVCAR-3 ovarian, 10.7 µM and 8.63 µM; in the assay on SK-OV-3 ovarian, 17.2 µM and 23.3 µM; with U251 CNS, 11.9 µM; with RXF 393 renal, 2.6 µM and 3.37 µM. Further, the TGI was 6.88 µM in the assay with MDA-N; 5.22 µM and 5.75 µM in the assay on MALME-3M melanoma; 11.1 µM and 12.6 µM in the assay with SF-268 CNS; 5.52 µM and 5.55 µM in the assay with SF-539 CNS; 26.6 µM and 14.4 µM in the assay on SNB-19 CNS.
On to `CC(C)(C)c1cc2c(O)c(c1)Cc1cc(C(C#N)(Cc3ccc4ccccc4c3)Cc3ccc4ccccc4c3)cc(c1O)Cc1cc(C(C)(C)C)cc(c1O)Cc1cc(C(C#N)(Cc3ccc4ccccc4c3)Cc3ccc4ccccc4c3)cc(c1O)C2`, for which the TGI in the assay on SN12C renal, with EKVX NSCLC, with OVCAR-3 ovarian, in the assay with SK-OV-3 ovarian, with U251 CNS and with RXF 393 renal was more than 100 µM each time. The TGI in the assay with MDA-N, in the assay with MALME-3M melanoma, in the assay with SF-268 CNS, with SF-539 CNS and in the assay on SNB-19 CNS was more than 100 µM throughout.
As for `C/C(=N\Nc1nc2ccccc2n1C)c1cnccn1`, the TGI is more than 100 µM with SN12C renal; more than 100 µM with EKVX NSCLC; 2.75 µM with OVCAR-3 ovarian; more than 100 µM in the assay on SK-OV-3 ovarian; more than 100 µM in the assay on U251 CNS; more than 100 µM in the assay on RXF 393 renal. Besides, the TGI with MDA-N, in the assay with MALME-3M melanoma, in the assay on SF-268 CNS, in the assay with SF-539 CNS and in the assay with SNB-19 CNS was more than 100 µM each time.
On to `Cc1ccc2c(n1)C(=O)C=CC2=O`, for which the TGI with SN12C renal came out at 29.8 µM; with EKVX NSCLC it was 15 µM; in the assay with OVCAR-3 ovarian, 8.54 µM; in the assay with SK-OV-3 ovarian it was 49.5 µM; in the assay with U251 CNS, 40.6 µM; with RXF 393 renal, 13.6 µM. Besides, the TGI is 20.3 µM with MDA-N; 16.8 µM in the assay with MALME-3M melanoma; 42.7 µM with SF-268 CNS; 35.3 µM with SF-539 CNS; 34 µM with SNB-19 CNS.
On to `N#CC(=C1CCCCC1)c1nc2ccccc2o1`, for which the TGI in the assay with SN12C renal is more than 100 µM; in the assay with EKVX NSCLC it was 89.4 µM; in the assay with OVCAR-3 ovarian it was more than 100 µM; with SK-OV-3 ovarian, more than 100 µM; with U251 CNS, more than 100 µM; with RXF 393 renal, more than 100 µM. Further, the TGI with MDA-N is more than 100 µM; in the assay with MALME-3M melanoma, more than 100 µM; in the assay on SF-268 CNS, more than 100 µM; in the assay on SF-539 CNS, 64.4 µM; in the assay on SNB-19 CNS, more than 100 µM.
Turning to `COc1ccc(/C=C2\CCC(C)/C(=C\c3ccc(OC)c(OC)c3)C2=O)cc1OC` (stereo not drawn), the TGI was 36.5 µM in the assay on SN12C renal; 10.2 µM in the assay with EKVX NSCLC; more than 100 µM in the assay on OVCAR-3 ovarian; 42.3 µM in the assay with SK-OV-3 ovarian; more than 100 µM in the assay with U251 CNS; 24.2 µM in the assay with RXF 393 renal. Also, the TGI in the assay on MDA-N was more than 100 µM; with MALME-3M melanoma, 22 µM; with SF-268 CNS, 45.1 µM; in the assay with SF-539 CNS, 13.8 µM; in the assay on SNB-19 CNS, 39.3 µM.
For the compound `CCN(CC)C(=S)SS(=O)(=O)c1ccc(Cl)cc1`, the TGI in the assay with SN12C renal was 48.2 µM; in the assay with EKVX NSCLC, more than 100 µM; in the assay with OVCAR-3 ovarian it was more than 100 µM; with SK-OV-3 ovarian, more than 100 µM; in the assay on U251 CNS, 30.4 µM; with RXF 393 renal, 39.2 µM. For the same compound, the TGI with MDA-N was more than 100 µM; in the assay on MALME-3M melanoma, 27.5 µM; with SF-268 CNS it was more than 100 µM; in the assay on SF-539 CNS, 43.5 µM; in the assay on SNB-19 CNS, more than 100 µM.
